{
  "source": "patent US12049662B2",
  "about": "“Rapid antimicrobial susceptibility testing by video-based object scattering intensity detection” (ARIZONA BOARD OF REGENTS ON BEHALF OF ARIZONA STATE …, priority 2021, dated 2024)",
  "key": {"[1]": {"tested_on": "E. coli ATCC 25922", "assay": "OSID-AST (object scattering intensity detection) with pure E. coli culture", "type": "cell-based", "details": "32 μg/ml nitrofurantoin or 2 μg/ml ciprofloxacin, 5 representative tests", "description": "The integrated object scattering intensity quantification enables detection of bacterial infection and AST for infection positive samples with an algorithm such as that depicted in FIG. 1C. Two test solutions are prepared from a patient's sample. One solution with medium and antibiotics for AST and the other one with medium only as control. To detect bacterial infection, the integrated object scattering intensity in the control group is quantified over time (e.g., the object scattering intensity is measured every 5 min with the 1 min video and for a total of 90 min). Clinical decision determination is based on integrated object scattering intensity. […] Otherwise, the sample is determined as infection negative. For antibiotic resistance detection, the integrated object intensity change over time in the raw sample (ΔIC=ICt−IC0) and in the antibiotic treated sample (ΔIABX=IABXt−IABX0) are calculated. […]\nTo establish the method, E. coli and S. saprophyticus cultures (see Materials and Methods) with and without antibiotics were imaged for bacteria growth measurements. […] The integrated object intensity of all cells was quantified with a 1 min duration video in every 5 min interval for a total of 90 min after real-time background removal processing. […] To accurately track E. coli growth, the averaged intensity of a 1 min video was quantified in every 5 min."}, "[2]": {"tested_on": "S. saprophyticus ATCC 15305", "assay": "OSID-AST (object scattering intensity detection) with pure S. saprophyticus culture", "details": "2 μg/ml ciprofloxacin", "excerpt": "ICt is the integrated object scattering intensity of samples without antibiotics at time t, IC0 is the initial intensity of the same sample. ΔIC=ICt−IC0 and ΔIABX=IABXt−IABX0, represent the integrated object scattering intensity change at time t for antibiotic-untreated (control) and -treated samples, respectively. […] For antibiotic resistance detection, the integrated object intensity change over time in the raw sample (ΔIC=ICt−IC0) and in the antibiotic treated sample (ΔIABX=IABXt−IABX0) are calculated. If the ratio between the two (ΔIABX/ΔIC) is above a resistant threshold (TR), or ΔIABX/ΔIC>TR, which indicates insufficient bacterial inhibition by the antibiotic, the sample is identified as resistant. If the ratio is at or below TR, bacteria growth is inhibited by the antibiotic, and the sample is defined as susceptible to that antibiotic."}},
  "data": [
    {"smiles": "O=C1CN(/N=C/c2ccc([N+](=O)[O-])o2)C(=O)N1", "note": "[nitrofurantoin]", "values": [
      {"measurement": "time at which antibiotic susceptibility of E. coli cells can be determined (object intensity detection)", "setting": "[1]", "value": 40, "unit": "min"}
    ]},
    {"smiles": "O=C(O)c1cn(C2CC2)c2cc(N3CCNCC3)c(F)cc2c1=O", "note": "[ciprofloxacin]", "values": [
      {"measurement": "time at which antibiotic susceptibility of E. coli cells can be determined (object intensity detection)", "setting": "[1]", "value": 60, "unit": "min"},
      {"measurement": "ΔIABX/ΔIC", "setting": "[2]; 90 min, resistance threshold 0.5", "value": "~0.14"},
      {"measurement": "object intensity change of antibiotic treated sample", "setting": "[2]; 90 min detection, control sample ~1.7 times", "value": "~1.1", "unit": "times"},
      {"measurement": "antibiotic susceptibility determination with OSID-AST", "setting": "[2]; threshold 0.5", "value": "susceptible"}
    ]}
  ]
}
